Assay results as given in patent EP1099690A1, “MONOCYCLIC $g(b)-LACTAM COMPOUNDS AND CHYMASE INHIBITORS CONTAINING THE SAME” (SHIONOGI & CO., LTD., priority 1998, dated 2000).

How the values were obtained:
[1] = target: T1, bovine pancreas trypsin (Bos taurus, UniProt P00760); test: Inhibitory activity on other serine proteases: Trypsin (sucAAPRpNA); assay type: biochemical; conditions: for IC50: trypsin; for fold vs chymase: trypsin IC50 compared with IC50 value of chymase
T1 construct: bovine pancreas trypsin (1.5 µg/ml in 1 mM HCl, 20 mM CaCl2, SIGMA); purchased SIGMA; host or cells: bovine pancreas
T1 sequence (P00760 24-246): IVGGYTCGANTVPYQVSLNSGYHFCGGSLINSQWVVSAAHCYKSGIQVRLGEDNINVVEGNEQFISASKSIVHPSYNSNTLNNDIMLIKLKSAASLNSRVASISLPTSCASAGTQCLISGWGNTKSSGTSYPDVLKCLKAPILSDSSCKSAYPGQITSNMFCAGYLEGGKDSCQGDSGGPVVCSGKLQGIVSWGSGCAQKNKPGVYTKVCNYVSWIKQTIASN
Procedure: The mixture of 10 µl of bovine pancreas trypsin (1.5 µg/ml in 1 mM HCl, 20 mM CaCl2, SIGMA), 80 µl of buffer (50mM Tris-HCl, 2 mM CaCl2 pH 8.0) and 1 µl of the compound of the present invention (in DMSO) was incubated for 20 minutes at room temperature and for 10 minutes at 37 °C. The resultant mixture was reacted with 10 µl of a substrate (5 mM sucAAPRpNA (BACHEM Feinchemikalien AG) in 50 % DMSO) for about 60 minutes at 37 °C and the absorption intensity (405 nm) was measured.
(§1) The IC50 values of each serine protease are calculated and compared with IC50 value of chymase.

[2] = target: T2, human neutrophils elastase (Homo sapiens, UniProt P08246); test: Inhibitory activity on other serine proteases: Elastase (sucAAVpNA); assay type: biochemical; conditions: for IC50: elastase; for fold vs chymase: elastase IC50 compared with IC50 value of chymase
T2 construct: human neutrophils elastase (0.02 mg/ml in 50 mM Tris-HCl, pH 7.0, 2 mM CaCl2, Athens research and technology); purchased Athens research and technology; host or cells: human neutrophils
T2 sequence (P08246 30-267): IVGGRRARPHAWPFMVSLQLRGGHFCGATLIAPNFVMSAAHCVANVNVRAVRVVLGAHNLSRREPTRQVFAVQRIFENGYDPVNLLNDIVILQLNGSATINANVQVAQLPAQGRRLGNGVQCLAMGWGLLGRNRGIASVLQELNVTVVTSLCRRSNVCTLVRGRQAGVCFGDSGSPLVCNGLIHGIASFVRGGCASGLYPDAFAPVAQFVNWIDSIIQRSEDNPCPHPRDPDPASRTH
Procedure: The mixture of 10 µl of human neutrophils elastase (0.02 mg/ml in 50 mM Tris-HCl, pH 7.0, 2 mM CaCl2, Athens research and technology), 80 µl of buffer (50mM Tris-HCl, pH 8.0, 2 mM CaCl2) and 1 µl of the compound of the present invention (in DMSO) was incubated for 20 minutes at room temperature and for 10 minutes at 37 °C. The resultant mixture was reacted with 10 µl of a substrate (5 mM sucAAVpNA (BACHEM Feinchemikalien AG) in 50 % DMSO) for about 30 minutes at 37 °C and the absorption intensity (405 nm) was measured.
as §1

[3] = target: T3, Cathepsin G (Homo sapiens, UniProt P08311); test: Inhibitory activity on other serine proteases: Cathepsin G (sucAAPFpNA); assay type: biochemical; conditions: for IC50: Cathepsin G; for fold vs chymase: Cathepsin G IC50 compared with IC50 value of chymase
T3 construct: human purulent sputum cathepsin (1.7 µg/ml in 1 mM HCl, 20 mM CaCl2, CALBIOCHEM); purchased CALBIOCHEM; host or cells: human purulent sputum
T3 sequence (P08311 21-244): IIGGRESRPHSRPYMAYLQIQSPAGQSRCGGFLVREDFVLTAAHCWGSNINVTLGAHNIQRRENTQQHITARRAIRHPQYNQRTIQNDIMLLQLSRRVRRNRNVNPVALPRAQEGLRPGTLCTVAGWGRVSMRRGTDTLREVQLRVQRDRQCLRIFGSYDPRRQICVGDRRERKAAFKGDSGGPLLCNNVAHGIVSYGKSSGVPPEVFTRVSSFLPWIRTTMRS
Procedure: The mixture of 10 µl of human purulent sputum cathepsin (1.7 µg/ml in 1 mM HCl, 20 mM CaCl2, CALBIOCHEM), 80 µl of buffer (50mM Tris-HCl, pH 7.5, 5.2 mM CaCl2) and 1 µl of the compound of the present invention (in DMSO) was incubated for 20 minutes at room temperature and for 10 minutes at 37 °C. The resultant mixture was reacted with 10 µl of a substrate (5 mM sucAAPFpNA in DMSO, BACHEM Feinchemikalien AG) for about 60 minutes at 37 °C and the absorption intensity (405 nm) was measured.
as §1

[4] = target: T4, human serine plasmin (Homo sapiens, UniProt P00747); test: Inhibitory activity on other serine proteases: Plasmin (Chromozyme PL); assay type: biochemical; conditions: for IC50: plasmin; for fold vs chymase: plasmin IC50 compared with IC50 value of chymase
T4 construct: purchased SIGMA
Procedure: The mixture of 10 µl of human serine plasmin (0.1 mg/ml in 1 mM HCl, 20 mM CaCl2, SIGMA), 80 µl of buffer (50mM Tris-HCl, pH 7.5, 50 mM NaCl) and 1 µl of the compound of the present invention (in DMSO) was incubated for 20 minutes at room temperature and for 10 minutes at 37 °C. The resultant mixture was reacted with 10 µl of a substrate (5 mM Chromozyme PL(TosGPKpNA, Boehringer Mannheim) in H2O) for about 30 minutes at 37 °C and the absorption intensity (405 nm) was measured.
as §1

[5] = target: T5, human chymase (Homo sapiens, UniProt P23946); test: Chymase inhibitory activity (Suc-Ala-Ala-Pro-Phe-pNA substrate, absorption 405 nm); assay type: biochemical; conditions: purified human chymase, 30 minutes at 37 °C preincubation, substrate 0.5 mM
T5 sequence (P23946 22-247): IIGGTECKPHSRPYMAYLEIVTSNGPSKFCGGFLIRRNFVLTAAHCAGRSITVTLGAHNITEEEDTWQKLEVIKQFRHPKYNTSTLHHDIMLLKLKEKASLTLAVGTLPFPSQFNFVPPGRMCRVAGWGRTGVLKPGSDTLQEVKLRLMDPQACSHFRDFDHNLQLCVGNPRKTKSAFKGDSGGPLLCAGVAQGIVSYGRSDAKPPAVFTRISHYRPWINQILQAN
Procedure: Compound (I) was dissolved in dimethylsulfoxide (DMSO) at 10^-2 M. Concentration of DMSO for activity measurement was 1 %.
Compound (I) dissolved in DMSO and purified human chymase (Takai et al., Clinica Chimica Acta 265, 1997, 13-20) were added to a buffer (0.1M Tris-HCl, 1.8M NaCl pH8.0). After the mixture was treated for 30 minutes at 37 °C, Suc-Ala-Ala-Pro-Phe-pNA (BACHEM Feinchemikalien AG) was added at 0.5 mM as a substrate and the mixture was enzymatically reacted at 37 °C.
After the reaction, the absorption intensity (405 nm) of the solution was measured to calculate the inhibitory rate.

[6] = target: T6, human plasma thrombin (Homo sapiens, UniProt P00734); test: Inhibitory activity on other serine proteases: Thrombin (Chromozyme TH); assay type: biochemical; conditions: for IC50: thrombin; for fold vs chymase: thrombin IC50 compared with IC50 value of chymase
T6 construct: human plasma thrombin (1 U/ml in 10 mM Mes, pH 6.0, 0.1 M NaCl, SIGMA); purchased SIGMA; host or cells: human plasma
Procedure: The mixture of 10 µl of human plasma thrombin (1 U/ml in 10 mM Mes, pH 6.0, 0.1 M NaCl, SIGMA), 80 µl of buffer (0.1 M Tris-HCl, pH 8.0, 10 mM CaCl2, 0.1 M NaCl) and 1 µl of the compound of the present invention (in DMSO) was incubated for 20 minutes at room temperature and for 10 minutes at 37 °C. The resultant mixture was reacted with 10 µl of a substrate (5 mM Chromozyme TH (TosGPRpNA, Boehringer Mannheim) in H2O) for about 60 minutes at 37 °C and the absorption intensity (405 nm) was measured.
as §1

[7] = tested on: IL-6; test: Cytokine production inhibitory activity, Concanavalin A stimulated mononuclear cells, ELISA: IL-6; assay type: cell-based; conditions: IL-6 in culture supernatant, Concanavalin A 5 µg/ml, forty-eight hours
Procedure: (§2) After human blood obtained in heparinized tube was layered on the Filcoll - Hypaque mixed solution (density=1.114, mono-poly separation solution, Dainippon Pharmaceutical Co., Ltd.), it was centrifuged to prepare mononuclear cells. The obtained mononuclear cells were suspended in a medium (Macrophage-SFM:GIBCO) to adjust 2 X 10^6 cells/ml and cultivated in 48-well plates. Ten minutes later addition of the compound of the present invention, Concanavalin A (5 µg/ml) was added to stimulate cells. After forty-eight hours, IL-1β, IL-2, IL-4, IL-5, IL-6, TNF-α and IFNγ in the culture supernatant were quantified by ELISA method. The following kits were used for the quantification of these cytokines. • IL-1β: Quantikine(Trademark) Human IL-1β ELISA KIT (R&D system) • IL-2: Quantikine(Trademark) Human IL-2 ELISA KIT (R&D system) • IL-4: Quantikine(Trademark) Human IL-4 ELISA KIT (R&D system) • IL-5: Quantikine(Trademark) Human IL-5 ELISA KIT (R&D system) • IL-6: Quantikine(Trademark) Human IL-6 ELISA KIT (R&D system) • TNF-α: Quantikine(Trademark) Human TNF-α ELISA KIT (R&D system) • IFNγ: Quantikine(Trademark) Human IFNγ ELISA KIT (R&D system)

[8] = tested on: IL-1β; test: Cytokine production inhibitory activity, Concanavalin A stimulated mononuclear cells, ELISA: IL-1β; assay type: cell-based; conditions: IL-1β in culture supernatant, human mononuclear cells, Concanavalin A 5 µg/ml, forty-eight hours
Procedure: as §2

[9] = tested on: IL-2; test: Cytokine production inhibitory activity, Concanavalin A stimulated mononuclear cells, ELISA: IL-2; assay type: cell-based; conditions: IL-2 in culture supernatant, Concanavalin A 5 µg/ml, forty-eight hours
Procedure: as §2

[10] = tested on: TNF-α; test: Cytokine production inhibitory activity, Concanavalin A stimulated mononuclear cells, ELISA: TNF-α; assay type: cell-based; conditions: TNF-α in culture supernatant, human mononuclear cells, Concanavalin A 5 µg/ml, forty-eight hours
Procedure: as §2

[11] = tested on: IL-5; test: Cytokine production inhibitory activity, Concanavalin A stimulated mononuclear cells, ELISA: IL-5; assay type: cell-based; conditions: IL-5 in culture supernatant, human mononuclear cells, Concanavalin A 5 µg/ml, forty-eight hours
Procedure: as §2

[12] = tested on: IFNγ; test: Cytokine production inhibitory activity, Concanavalin A stimulated mononuclear cells, ELISA: IFNγ; assay type: cell-based; conditions: IFNγ in culture supernatant, Concanavalin A 5 µg/ml, forty-eight hours
Procedure: as §2

[13] = tested on: IL-4; test: Cytokine production inhibitory activity, Concanavalin A stimulated mononuclear cells, ELISA: IL-4; assay type: cell-based; conditions: IL-4 in culture supernatant, Concanavalin A 5 µg/ml, forty-eight hours
Procedure: as §2

T4 sequence (P00747 581-810 limits assumed): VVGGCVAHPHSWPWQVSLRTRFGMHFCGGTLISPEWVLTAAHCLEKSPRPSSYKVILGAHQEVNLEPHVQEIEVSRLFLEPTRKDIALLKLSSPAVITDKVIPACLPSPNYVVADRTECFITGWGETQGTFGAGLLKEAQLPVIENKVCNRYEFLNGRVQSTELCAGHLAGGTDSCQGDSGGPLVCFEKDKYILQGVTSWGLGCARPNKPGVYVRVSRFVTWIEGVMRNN
T4 sequence (P00747 98-580 partner limits assumed): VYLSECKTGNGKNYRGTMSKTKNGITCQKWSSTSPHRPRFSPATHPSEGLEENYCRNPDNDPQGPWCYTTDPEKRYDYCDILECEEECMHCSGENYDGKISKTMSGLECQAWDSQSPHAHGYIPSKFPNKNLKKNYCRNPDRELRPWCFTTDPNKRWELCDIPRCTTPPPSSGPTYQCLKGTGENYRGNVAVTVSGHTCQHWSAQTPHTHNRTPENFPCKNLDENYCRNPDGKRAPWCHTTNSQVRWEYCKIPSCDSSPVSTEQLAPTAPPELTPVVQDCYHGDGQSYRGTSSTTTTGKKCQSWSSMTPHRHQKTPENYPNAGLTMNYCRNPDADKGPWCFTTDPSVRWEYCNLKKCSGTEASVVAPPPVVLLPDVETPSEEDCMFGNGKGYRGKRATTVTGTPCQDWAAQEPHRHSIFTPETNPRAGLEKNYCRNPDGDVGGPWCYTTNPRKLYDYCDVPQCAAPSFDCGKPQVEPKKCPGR

Row | IC50 [8] [µM] | IC50 [10] [µM] | IC50 [11] [µM] | SMILES | IC50 [1] [µM] | fold vs chymase [1] | IC50 [2] [µM] | fold vs chymase [2] | IC50 [3] [µM] | fold vs chymase [3] | IC50 [4] [µM] | fold vs chymase [4] | IC50 [5] [µM] | IC50 [6] [µM] | fold vs chymase [6] | further results
1 |  |  |  | CCOc1ccccc1CC1C(=O)N(C(=O)NC(c2ccccc2)c2ccccc2)C1Oc1ccc(C(=O)O)cc1 (centres unmarked) [Compound I-144, 4-[1-(Benzhydryl-carbamoyl)-3-(2-ethoxy-benzyl)-4-oxo-azetidin-2-yloxy]-benzoic acid] | 25 | 8000 | > 100 | >30000 | 0.0354 | 11 | > 10 | >3000 | 0.0031 | > 100 | >30000 | 
2 | 2.7 | 1.9 | 6.5 | CC(NC(=O)N1C(=O)C(Cc2ccccc2)C1Oc1ccc(C(=O)N2CCN(C)CC2)cc1)c1ccccc1 (centres unmarked) [Compound I-39, 3-Benzyl-2-[4-(4-methyl-piperazine-1-carbonyl)-phenoxy]-4-oxo-azetidine-1-carboxylic acid (1-phenyl-ethyl)-amide] |  |  |  |  |  |  |  |  | 0.00046 |  |  | IC50 ([7]; Homo sapiens): 6.4 µM; IC50 ([9]; Homo sapiens): 2.7 µM; IC50 ([12]; Homo sapiens): 12.1 µM; IC50 ([13]; Homo sapiens): 11.7 µM
3 | 11.3 | 6.8 | 13.9 | CC(NC(=O)N1C(=O)C(Cc2ccccc2)C1Oc1ccc(C(=O)N2CCN(C)CC2)cc1)c1ccccc1 (centres unmarked) [Compound I-62, 3-Benzyl-2-[4-(4-methyl-piperazine-1-carbonyl)-phenoxy]-4-oxo-azetidine-1-carboxylic acid (1-phenyl-ethyl)-amide] |  |  |  |  |  |  |  |  | 0.00017 |  |  | IC50 ([7]; human mononuclear cells): 9.3 µM; IC50 ([9]; human mononuclear cells): 2.4 µM; IC50 ([12]; human mononuclear cells): 17.1 µM; IC50 ([13]; human mononuclear cells): 20.2 µM
4 |  |  |  | CCOc1ccccc1C[C@@H]1C(=O)N(C(=O)NC(c2ccc(C)cc2)c2ccc(C)cc2)[C@H]1Oc1ccc(C(=O)O)cc1 [Compound I-158] | 6.2 | 760 | 25 | 3000 | 0.143 | 17 | > 100 | >10000 | 0.0082 | > 100 | >10000 | 
